Test results: publication PMC5128008, “Antimicrobial activity and stability of the D-amino acid substituted derivatives of antimicrobial peptide polybia-MPI” (AMB Express, 2016)
Values after ≈ are worked out from the molar mass of the structure shown. Where a SMILES comes first, the peptide text is derived from it. [ ]: non-standard residue; d: D form.

Columns and labels:
[1] = system: Bacillus subtilis (ATCC23857); assay: MBC, plating after MIC incubation; type: cell-based; details: 50 µl aliquots from MIC wells onto agar plates, overnight 37 °C, lowest concentration reducing CFUs at least 99.9%
Protocol: (§1) The minimal inhibitory concentration (MIC) of the peptides was measured in triplicate by the standard broth microdilution method (Peterson et al. [1980]; Wang et al. [2012]). In brief, bacteria/fungi were cultured overnight to mid-logarithmic-phase in Mueller–Hinton broth (MHB)/Sabouraud dextrose broth. The cultures were diluted to a final concentration of 2 × 10^4 cfu/ml in fresh Mueller–Hinton broth (MHB)/Sabouraud dextrose broth. Each well of 96-well propylene microtitre plates was filled with 100 µl cell suspension and 100 μl peptide solution of twofold diluted serially. And the final concentrations of peptide mixtures ranged from 1 to 256 µM. Controls were done without peptides. After 18 h of incubation at 37 °C (bacteria)/35 °C (fungi), the minimal inhibitory concentration (MIC) of the peptides was evaluated by visible turbidity in each well.
(§2) The minimal bactericidal concentrations (MBCs) and minimum fungicidal concentration (MFCs) of the peptides was determined at the end of the incubation period by transferring 50 µl aliquots onto agar plates and incubated overnight at 37 °C/35 °C. The MBC/MFC was set as the lowest concentration of the number of CFUs that reduced at least 99.9%.

[2] = system: Staphylococcus aureus (ATCC29213); assay: MBC, plating after MIC incubation; type: cell-based; details: 50 µl aliquots from MIC wells onto agar plates, overnight 37 °C, lowest concentration reducing CFUs at least 99.9%
Protocol: as §1, §2

[3] = system: Pseudomonas aeruginosa (ATCC27853); assay: MBC, plating after MIC incubation; type: cell-based; details: 50 µl aliquots from MIC wells onto agar plates, overnight 37 °C, lowest concentration reducing CFUs at least 99.9%
Protocol: as §1, §2

[4] = system: E. coli (ATCC2592); assay: MBC, plating after MIC incubation; type: cell-based; details: 50 µl aliquots from MIC wells onto agar plates, overnight 37 °C, lowest concentration reducing CFUs at least 99.9%
Protocol: as §1, §2

[5] = system: Staphylococcus epidermidis (ATCC 12228); assay: MBC, plating after MIC incubation; type: cell-based; details: 50 µl aliquots from MIC wells onto agar plates, overnight 37 °C, lowest concentration reducing CFUs at least 99.9%
Protocol: as §1, §2

[6] = system: sakazakii (ATCC 29544); assay: MBC, plating after MIC incubation; type: cell-based; details: 50 µl aliquots from MIC wells onto agar plates, overnight 37 °C, lowest concentration reducing CFUs at least 99.9%
Protocol: as §1, §2

[7] = system: E. coli (ML-35) (ATCC43827); assay: MBC, plating after MIC incubation; type: cell-based; details: 50 µl aliquots from MIC wells onto agar plates, overnight 37 °C, lowest concentration reducing CFUs at least 99.9%
Protocol: as §1, §2

[8] = system: (ATCC 700603); details: ATCC 700603, 18 h
[9] = system: C. krusei (ATCC 6258); assay: MFC, plating after MIC incubation; type: cell-based; details: 50 µl aliquots from MIC wells onto agar plates, overnight 35 °C, lowest concentration reducing CFUs at least 99.9%
Protocol: as §1, §2

[10] = system: C. albicans (ATCC 14053); assay: MFC, plating after MIC incubation; type: cell-based; details: 50 µl aliquots from MIC wells onto agar plates, overnight 35 °C, lowest concentration reducing CFUs at least 99.9%
Protocol: as §1, §2

[11] = system: C. glabrata (ATCC 2001); assay: MFC, plating after MIC incubation; type: cell-based; details: 50 µl aliquots from MIC wells onto agar plates, overnight 35 °C, lowest concentration reducing CFUs at least 99.9%
Protocol: as §1, §2

[12] = system: C. parapsilosis (ATCC 22019); assay: MFC, plating after MIC incubation; type: cell-based; details: 50 µl aliquots from MIC wells onto agar plates, overnight 35 °C, lowest concentration reducing CFUs at least 99.9%
Protocol: as §1, §2

[13] = system: C.tropicalis (ATCC 750); assay: MFC, plating after MIC incubation; type: cell-based; details: 50 µl aliquots from MIC wells onto agar plates, overnight 35 °C, lowest concentration reducing CFUs at least 99.9%
Protocol: as §1, §2

[14] = system: (ATCC 700603); details: ATCC 700603, 18 h; remark: listed apart in the source
[15] = system: trypsin; assay: RP-HPLC analysis of stability to trypsin; type: in vitro ADME; details: peptide 10 mM, trypsin 0.2 mg/ml, 37 °C, 0 and 360 min, TFA/acetonitrile precipitation, Fig. 7
Protocol: The stability of polybia-MPI and its analogues was assayed with trypsin or chymotrypsin in a volume ratio of 1:15 (peptide:trypsin) (Choi et al. [2013]; Hamamoto et al. [2002]; Molhoek et al. [2011]). Peptides at the concentration of 10 mM were incubated with trypsin or chymotrypsin (0.2 mg/ml) at 37 °C. 40 µl samples of the incubations were taken for the time of 0 and 360 min, respectively. Then, the samples were mixed with 80 µl of 15% trifluoroacetic acid (TFA) and 80 µl acetonitrile which incubated at 4 °C for at least 15 min to precipitate proteins. The supernatant was collected of each sample after centrifugation at 13,000 rpm for 10 min and were detected with reverse phase high performance liquid chromatography (RP-HPLC) analysis.
Fig. 7 HPLC analysis of the susceptibility of polybia-MPI, D-MPI and D-lys-MPI to trypsin and chymotrypsin. Peptides at the concentration of 10 mM were incubated with trypsin or chymotrypsin at 37 °C. At the determined time interval, samples were taken and mixed with trifluoroacetic acid (TFA) and acetonitrile to precipitate proteins, respectively. Then the samples were detected with reverse phase high performance liquid chromatography (RP-HPLC) analysis

[16] = system: Candida tropicalis (ATCC 750); assay: MIC, broth microdilution; type: cell-based; details: Sabouraud dextrose broth, 2 × 10^4 cfu/ml, peptide 1 to 256 µM, 18 h, 35 °C, visible turbidity, triplicate
Protocol: as §1

[17] = system: Staphylococcus aureus (ATCC 29213); assay: MIC, broth microdilution; type: cell-based; details: Mueller–Hinton broth, 2 × 10^4 cfu/ml, peptide 1 to 256 µM, 18 h, 37 °C, visible turbidity, triplicate
Protocol: as §1

[18] = system: Bacillus subtilis (ATCC 23857); assay: MIC, broth microdilution; type: cell-based; details: Mueller–Hinton broth, 2 × 10^4 cfu/ml, peptide 1 to 256 µM, 18 h, 37 °C, visible turbidity, triplicate
Protocol: as §1

[19] = system: Pseudomonas aeruginosa (ATCC 27853); assay: MIC, broth microdilution; type: cell-based; details: Mueller–Hinton broth, 2 × 10^4 cfu/ml, peptide 1 to 256 µM, 18 h, 37 °C, visible turbidity, triplicate
Protocol: as §1

[20] = system: Candida albicans ATCC (ATCC 14053); assay: MIC, broth microdilution; type: cell-based; details: Candida albicans (ATCC 14053), Sabouraud dextrose broth, 2 × 10^4 cfu/ml, peptide 1 to 256 µM, 18 h, 35 °C, visible turbidity, triplicate
Protocol: as §1

[21] = system: Candida glabrata ATCC (ATCC 2001); assay: MIC, broth microdilution; type: cell-based; details: Candida glabrata (ATCC 2001), Sabouraud dextrose broth, 2 × 10^4 cfu/ml, peptide 1 to 256 µM, 18 h, 35 °C, visible turbidity, triplicate
Protocol: as §1

[22] = system: E. coli (ATCC 2592); assay: MIC, broth microdilution; type: cell-based; details: Mueller–Hinton broth, 2 × 10^4 cfu/ml, peptide 1 to 256 µM, 18 h, 37 °C, visible turbidity, triplicate
Protocol: as §1

[23] = system: Staphylococcus epidermidis (ATCC 12228); assay: MIC, broth microdilution; type: cell-based; details: Mueller–Hinton broth, 2 × 10^4 cfu/ml, peptide 1 to 256 µM, 18 h, 37 °C, visible turbidity, triplicate
Protocol: as §1

[24] = system: sakazakii (ATCC 29544); assay: MIC, broth microdilution; type: cell-based; details: Mueller–Hinton broth, 2 × 10^4 cfu/ml, peptide 1 to 256 µM, 18 h, 37 °C, visible turbidity, triplicate
Protocol: as §1

[25] = system: E. coli (ML-35) (ATCC 43827); assay: MIC, broth microdilution; type: cell-based; details: Mueller–Hinton broth, 2 × 10^4 cfu/ml, peptide 1 to 256 µM, 18 h, 37 °C, visible turbidity, triplicate
Protocol: as §1

[26] = system: Candida krusei (ATCC 6258); assay: MIC, broth microdilution; type: cell-based; details: Sabouraud dextrose broth, 2 × 10^4 cfu/ml, peptide 1 to 256 µM, 18 h, 35 °C, visible turbidity, triplicate
Protocol: as §1

[27] = system: Candida parapsilosis (ATCC 22019); assay: MIC, broth microdilution; type: cell-based; details: Sabouraud dextrose broth, 2 × 10^4 cfu/ml, peptide 1 to 256 µM, 18 h, 35 °C, visible turbidity, triplicate
Protocol: as §1

CC[C@@H](C)[C@@H](N)C(=O)N[C@H](CC(=O)O)C(=O)N[C@H](Cc1c[nH]c2ccccc12)C(=O)N[C@H](CCCCN)C(=O)N[C@H](CCCCN)C(=O)N[C@H](CC(C)C)C(=O)N[C@H](CC(C)C)C(=O)N[C@H](CC(=O)O)C(=O)N[C@H](C)C(=O)N[C@H](C)C(=O)N[C@H](CCCCN)C(=O)N[C@H](CCC(N)=O)C(=O)N[C@@H](C(=O)N[C@H](CC(C)C)C(N)=O)[C@H](C)CC [D-MPI] (H-[dI][dD][dW][dK][dK][dL][dL][dD][dA][dA][dK][dQ][dI][dL]-NH2)
MBC/MFC [1]: 8 µM (≈ 13.2 µg/mL)
MBC/MFC [2]: 64 µM (≈ 106 µg/mL)
MBC/MFC [3]: 128 µM (≈ 212 µg/mL)
MBC/MFC [4]: 16 µM (≈ 26.5 µg/mL)
MBC/MFC [5]: 128 µM (≈ 212 µg/mL)
MBC/MFC [6]: 64 µM (≈ 106 µg/mL)
MBC/MFC [7]: 64 µM (≈ 106 µg/mL)
MIC [8]: 64 µM (≈ 106 µg/mL)
MBC/MFC [9]: 8 µM (≈ 13.2 µg/mL)
MBC/MFC [10]: 16 µM (≈ 26.5 µg/mL)
MBC/MFC [11]: 32 µM (≈ 52.9 µg/mL)
MBC/MFC [12]: 32 µM (≈ 52.9 µg/mL)
MBC/MFC [13]: 16 µM (≈ 26.5 µg/mL)
MBC/MFC [14]: 128 µM (≈ 212 µg/mL)
susceptibility to trypsin by HPLC profile [15]: not or only partly degraded
MIC [16]: 16 µM (≈ 26.5 µg/mL)
MIC [17]: 16 µM (≈ 26.5 µg/mL)
MIC [18]: 8 µM (≈ 13.2 µg/mL)
MIC [19]: 64 µM (≈ 106 µg/mL)
MIC [20]: 16 µM (≈ 26.5 µg/mL)
MIC [21]: 16 µM (≈ 26.5 µg/mL)
MIC [22]: 16 µM (≈ 26.5 µg/mL)
MIC [23]: 16 µM (≈ 26.5 µg/mL)
MIC [24]: 32 µM (≈ 52.9 µg/mL)
MIC [25]: 32 µM (≈ 52.9 µg/mL)
MIC [26]: 8 µM (≈ 13.2 µg/mL)
MIC [27]: 32 µM (≈ 52.9 µg/mL)
